Legend:
[1] = Oxygen radical absorbance capacity (ORAC) assay; design: ORAC assay TE25 (trolox equivalents): dose or concentration left out as unconfirmed; conditions: for ORAC assay TE25 (trolox equivalents): net AUC sample / net AUC trolox
Procedure: An ORAC assay was performed as disclosed in the literature (Huang, D. et al., J. Agric. Food Chem., 53, 1841-56, 2005).
AAPH (60 mM) and fluorescein (50 nM) were prepared in buffer (75 mM phosphate buffer, pH7.4) without a sample or a sample or a standard (Trolox). Each of the samples and the standard was suspended in a solution of 7% RMCD (randomly methylated beta-cyclodextrin) in 50% acetone. RMCD was used to increase the solubility of oil-soluble samples. Each sample was sufficiently mixed with fluorescein solution (66 nM, 190 μl) by shaking for 5 seconds. After incubation at 37° C. for 10 minutes, AAPH (500 mM, 30 μl) was quickly added to each sample, and a decrease in the fluorescence was measured using a fluorescence microplate reader (Ex=485 nm, Em=530 nm; SpectraMax GeminiEM, Molecular Devices, Sunnyvale, Calif.) at 37° C. at 5-min intervals for 9 hours. To quantify the activity of scavenging peroxyl radicals, AUC (area-under-the-curve) was calculated according to the following equation 2, and net AUC was calculated according to the following equation 3, and the TE (trolox equivalents) of each sample was calculated according to the following equation 4 based on a standard curve of net AUC plotted according to an increase in trolox concentration. AUC=(0.5+f1/f0+f2/f0+f3/f0+ . . . +fn−2/f0+fn−1/f0+fn/f0)×5, Equation 2
wherein f0 is the first fluorescence at 0 min and time I. Net AUC=AUCsample−AUCblank. Equation 3 TE(trolox equivalents) of each sample=[netAUCsample […]]/[net AUCtrolox […]]. Equation 4
(§1) The antioxidant activities of the verbenone derivatives of the present invention were measured by the following two different chemical reactions: (1) a single electron transfer-based assay that is a […] [DPPH] assay that measures a decrease in DPPH acting as a free radical generator and a termination probe; and (2) a hydrogen atom transfer assay that is an oxygen radical absorbance capacity [[…]] assay that measures the competitive reaction kinetics of a peroxyl radical generator (AAPH; 2,2′-azobis-(2-methylpropionamide)-dihydrochloride) and each sample acting as an antioxidant for oxidizable fluorescent probe (fluorescein).

cortical neurons [2] = assay: Oxygen-glucose deprivation (OGD)/reoxygenation neuronal injury, LDH release; assay type: cell-based; conditions: rat cortical neurons, FIG. 1
Procedure: (§2) Cortical neurons (5×10^5 cells/ml) were isolated from fetal SD rats (16-17 days). Specifically, brain cortex was cut, and cells were isolated from the tissue by repeated trituration using a Pasteur pipette in buffer (Hanks' Balanced Salt Solution, HBSS). The cell suspension (1.8×10^3 cells/mm^2) was dispensed on a plate pretreated with poly-D-lysine ([…])/laminin ([…]). The cells were placed in 10% FBS-containing NBM medium, and incubated in a […]/5% CO2 atmosphere at 37° C. After 15-16 days of the incubation, the experiment was performed.
In order to induce hypoxic-ischemic symptoms in vitro, the incubated cells were placed in an anoxic chamber (partial oxygen pressure <2 mmHg). The cells were incubated glucose-free DMEM while being bubbled with an anaerobic gas mixture (95% N2 and 5% CO2) for 30 minutes to remove residual oxygen, and were incubated at 37° C. for 90 minutes for oxygen deprivation. After 90 minutes, the exposed solution was replaced with 25 mmol/L glucose-containing DMEM medium to stop the OGD reaction, and the cells were restored to normal oxygen conditions. Control cells not exposed to OGD were incubated in glucose (25 mmol/L)-containing DMEM medium provided with an aerobic gas mixture (95% air and 5% CO2). The cells were treated with each sample 30 minutes before, and during the entire period of OGD/re-oxygenation.
(§3) In order to measure cell injury or cell death, the amount of LDH released into the medium was measured using a cell viability measurement kit (Sigma-Aldrich, St. Louis, Mo.). Cell viability was expressed as the percentage of LDH relative to the total cellular LDH level measured in sister cultures lysed by freezing-thawing after the experiment.

cortical neurons [3] = assay: NMDA-induced excitotoxicity, LDH release; assay type: cell-based, SD rats; design: dose or concentration left out as unconfirmed; conditions: cultured cortical neuronal cells; sample 30 min before NMDA; lower than MK-801; FIG. 2
Procedure: as §2
After incubation on the plate for 15-18 days, the cortical neurons were exposed to NMDA ([…]) in a solution (Mg^2+-free Earle's balanced salt solution (EBSS); containing 1.8 mM CaCl2 and 10 mM glycine) for 10 minutes. After exposure, the cells were washed with MgSO4-containing EBSS solution, and incubated in 25 mmol/L glucose-containing DMEM medium in a 5% CO2 incubator at 37° C. 30 Minutes before treatment with NMDA, the cells were treated with each sample […].
as §3

[4] = DPPH assay (ability to scavenge nitrogen radicals); design: DPPH assay % inhibition: concentration or dose not given beside the values; conditions: relative to vitamin C (Equation 1)
Procedure: The samples were mixed with DPPH (23.6 μg/ml, in ethanol), and incubated in dark at 37° C. for 30 minutes. The DPPH absorbance reduced by each sample was measured at 517 nm. Vitamin C (Sigma-Aldrich, St. Louis, Mo.) was used as a control, and the DPPH inhibition value (%) was calculated using the following equation: Scavenging activity (%)=[Absmax(Vit.C)−Abssample]/[Absmax(Vit.C)−Absmin(Vit.C)]×100. Equation 1
as §1

| Structure (SMILES) | ORAC assay Net AUC [1] | ORAC assay TE25 (trolox equivalents) [1] | neuronal injury induced by OGD (LDH release) (cortical neurons [2]; OGD/reoxygenation, comparable to MK801) | cytotoxicity (cortical neurons [2]) | NMDA-induced neuronal injury (cortical neurons [3]) | DPPH assay % inhibition [4] |
| --- | --- | --- | --- | --- | --- | --- |
| CC1(C)[C@@H]2C[C@H]1C(C=Cc1ccc(O)cc1)=CC2=O [Compound 3a, (1S,5R)-4-(4-hydroxystyryl)-6,6-dimethylbicyclo[3.1.1]hept-3-en-2-one] | 153.98 ± 1.68 | 3.43 ± 0.04 | significantly reduced neuronal injury | showed no cytotoxicity | significantly reduced NMDA-induced neuronal injury | 19.11 ± 0.67% |
| COc1cc(O)ccc1C=CC1=CC(=O)[C@H]2C[C@@H]1C2(C)C [Compound 3b, (1S,5R)-4-(4-hydroxy-2-methoxystyryl)-6,6-dimethylbicyclo[3.1.1]hept-3-en-2-one] | 106.48 ± 1.89 | 2.37 ± 0.04 | – | – | – | 38.13 ± 5.62% |
| CC1(C)[C@@H]2C[C@H]1C(C=Cc1ccc(O)c(Br)c1)=CC2=O [Compound 3d, (1S,5R)-4-(3-bromo-4-hydroxystyryl)-6,6-dimethylbicyclo[3.1.1]hept-3-en-2-one] | 168.12 ± 5.24 | 3.74 ± 0.12 | – | – | – | 29.45 ± 2.41% |
| COc1cc(O)cc(OC)c1C=CC1=CC(=O)[C@H]2C[C@@H]1C2(C)C [Compound 3e, (1S,5R)-4-(4-hydroxy-2,6-dimethoxystyryl)-6,6-dimethylbicyclo[3.1.1]hept-3-en-2-one] | 166.26 ± 6.05 | 3.70 ± 0.13 | – | – | – | 55.80 ± 7.52% |
| CC1(C)[C@@H]2C[C@H]1C(C=Cc1cccc(O)c1)=CC2=O [Compound 3g, (1S,5R)-4-(3-hydroxystyryl)-6,6-dimethylbicyclo[3.1.1]hept-3-en-2-one] | 73.74 ± 3.86 | 1.64 ± 0.09 | – | – | – | – |
| CC1(C)[C@@H]2C[C@H]1C(C=Cc1ccccc1O)=CC2=O [Compound 3h, (1S,5R)-4-(2-hydroxystyryl)-6,6-dimethylbicyclo[3.1.1]hept-3-en-2-one] | 98.77 ± 2.53 | 2.20 ± 0.06 | – | – | – | 4.64 ± 0.60% |
| COc1ccc(C=CC2=CC(=O)[C@H]3C[C@@H]2C3(C)C)c(O)c1 [Compound 3i, (1S,5R)-4-(2-hydroxy-4-methoxystyryl)-6,6-dimethylbicyclo[3.1.1]hept-3-en-2-one] | 136.87 ± 3.24 | 3.05 ± 0.07 | – | – | significantly reduced NMDA-induced neuronal injury | 51.21 ± 3.83% |
| CC1(C)[C@@H]2C[C@H]1C(C=Cc1ccccc1)=CC2=O [Compound 4a, (1S,5R)-6,6-dimethyl-4-styrylbicyclo[3.1.1]hept-3-en-2-one] | 27.73 ± 0.74 | 0.61 ± 0.01 | – | – | – | – |
| CC1(C)[C@@H]2C[C@H]1C(C=Cc1ccc(F)cc1)=CC2=O [Compound 4b, (1S,5R)-4-(4-fluorostyryl)-6,6-dimethylbicyclo[3.1.1]hept-3-en-2-one] | 26.15 ± 1.26 | 0.62 ± 0.02 | – | – | – | – |
| COc1ccc(C=CC2=CC(=O)[C@H]3C[C@@H]2C3(C)C)cc1 [Compound 4c, (1S,5R)-4-(4-methoxystyryl)-6,6-dimethylbicyclo[3.1.1]hept-3-en-2-one] | 38.06 ± 2.00 | 0.79 ± 0.01 | – | – | – | – |
| CC1(C)[C@@H]2C[C@H]1C(C=Cc1ccc(-c3ccccc3)cc1)=CC2=O [Compound 4d, (1S,5R)-4-(2-(biphenyl-4-yl)vinyl)-6,6-dimethylbicyclo[3.1.1]hept-3-en-2-one] | 26.75 ± 1.27 | 0.56 ± 0.01 | – | – | – | – |
| COc1ccc(C=CC2=CC(=O)[C@H]3C[C@@H]2C3(C)C)cc1OC [Compound 4f, (1S,5R)-4-(3,4-dimethoxystyryl)-6,6-dimethylbicyclo[3.1.1]hept-3-en-2-one] | 39.35 ± 1.67 | 0.88 ± 0.04 | – | – | – | – |
| COc1cc(C=CC2=CC(=O)[C@H]3C[C@@H]2C3(C)C)cc(OC)c1 [Compound 4g, (1S,5R)-4-(3,5-dimethoxystyryl)-6,6-dimethylbicyclo[3.1.1]hept-3-en-2-one] | 45.28 ± 0.62 | 1.01 ± 0.01 | – | – | – | – |
| COc1ccc(OC)c(C=CC2=CC(=O)[C@H]3C[C@@H]2C3(C)C)c1 [Compound 4h, (1S,5R)-4-(2,5-dimethoxystyryl)-6,6-dimethylbicyclo[3.1.1]hept-3-en-2-one] | 32.44 ± 1.54 | 0.72 ± 0.03 | – | – | – | – |
| COc1ccc(Br)cc1C=CC1=CC(=O)[C@H]2C[C@@H]1C2(C)C [Compound 4i, (1S,5R)-4-(5-bromo-2-methoxystyryl)-6,6-dimethylbicyclo[3.1.1]hept-3-en-2-one] | 32.96 ± 1.03 | 0.73 ± 0.02 | – | – | – | – |
| CC1(C)[C@@H]2C[C@H]1C(/C=C/c1ccccn1)=CC2=O [Compound 5a, (1S,5R)-6,6-dimethyl-4-((E)-2-(pyridin-2-yl)vinyl)bicyclo[3.1.1]hept-3-en-2-one] | 23.51 ± 0.79 | 0.52 ± 0.02 | – | – | significantly reduced NMDA-induced neuronal injury | – |
| CC1(C)[C@@H]2C[C@H]1C(/C=C/c1cccnc1)=CC2=O [Compound 5b, (1S,5R)-6,6-dimethyl-4-((E)-2-(pyridin-3-yl)vinyl)bicyclo[3.1.1]hept-3-en-2-one] | 22.93 ± 0.61 | 0.51 ± 0.01 | – | – | – | – |
| CC1(C)[C@@H]2C[C@H]1C(/C=C/c1ccncc1)=CC2=O [Compound 5c] | 22.51 ± 0.34 | 0.50 ± 0.01 | – | – | – | – |

From US10710951B2, “Pharmaceutical composition containing verbenone derivative for treating or preventing neurodegenerative disease” (KOREA UNIVERSITY RESEARCH AND BUSINESS FOUNDATION, priority 2012, dated 2020)
